What follows are compounds tested against T1, MC4 (Homo sapiens, UniProt P32245) (assay: GPCR radioligand binding (RLB) assay, melanocortin MC4, [125I]NDP-αMSH). Conditions: 4.0 Micromolar; Example Library 10.
T1 construct: purchased Perkin Elmer BioSignal; host or cells: HEK 293
Protocol: Recombinant human receptors expressed in HEK 293 cells were used for all experiments. Receptor membrane preparations were purchased from Perkin Elmer BioSignal. The labelled ligand used in somatostatin GPCR RLB assays was [^125I]SST-14 and in melanocortin assays was [^125I]NDP-αMSH. All assays were done in a 96-well plate format using either glass fiber filter mats or filter plates. All reagents purchased were of the highest quality.
Specific assay buffer, incubation and washing conditions were optimized for each receptor however they all followed the same general format. The procedures for both filter mat and filter plate formats are based on the receptor manufacturers recommendations or those described extensively in the literature. The procedures are briefly outlined below.
In assays where filter mats are used we incubate receptor membranes, assay buffer and [^125I] labelled ligand in 96 well microplates. Add compounds to incubation mixture and continue incubation for optimized period. Presoak Filter mat GF/B in 0.5% PEI for ˜2 hr at 4° C. On completion of assay mixture incubation add additional 100 μL/well of assay buffer immediately prior to filtration. Filter the assay mixture onto the GF/B filter mat using a cell harvester. Dry the filter mats prior to sealing them into a scintillation counting bag with scintillant. Radioactivity in each well is detected by liquid scintillation counting.
In assays where filter plates are used Multiscreen glass fiber filter plates (Millipore, Cat No MAFCNOB10) are precoated with 0.5% PEI for ˜2 hr at 4° C. All wells are then washed with 200 µl/well assay buffer and filtered using the Multiscreen Separation System. Subsequently receptor membranes, assay buffer and labelled ligands are added to the wells and equilibrated. Compounds for testing are then added to the mixture and incubation is continued for an optimized time. Plates are then put into the Multiscreen Separation System and the assay mixture is filtered through the plate under vacuum. Each well is then washed several times with assay buffer. Plates are then dried prior to putting sealing tape onto the bottom of the plate. Scintillant is added to each well and radioactivity measured by liquid scintillation counting.
Raw data was analysed according to standard methods using either GraphPad Prism software or IDDBS ActivityBase software.

T1 sequence (P32245 whole entry): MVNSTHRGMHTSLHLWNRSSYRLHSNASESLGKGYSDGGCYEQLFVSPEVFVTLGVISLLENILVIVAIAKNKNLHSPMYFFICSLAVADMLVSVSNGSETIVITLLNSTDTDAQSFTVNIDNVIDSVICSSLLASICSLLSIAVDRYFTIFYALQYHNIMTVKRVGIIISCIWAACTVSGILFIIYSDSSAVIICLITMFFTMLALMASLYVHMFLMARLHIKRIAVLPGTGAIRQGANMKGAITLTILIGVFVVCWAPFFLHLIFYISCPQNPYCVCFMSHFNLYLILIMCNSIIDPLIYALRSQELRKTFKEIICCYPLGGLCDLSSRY

Structure (SMILES) | MC4 Inhibition at 4.0 Micromolar
NCCC(=O)N[C@H]1C(OCc2ccc3ccccc3c2)O[C@H](COCc2ccccc2)[C@@H](O)[C@@H]1OCc1ccccc1 (single isomer, unassigned) [Compound 362] | + (Indicates inhibition greater than . . . 50%)
NCCC(=O)N[C@H]1C(OCc2ccc3ccccc3c2)O[C@H](COCc2ccccc2)[C@@H](O)[C@@H]1OCc1ccccc1 (single isomer, unassigned) [Compound 363] | + (Indicates inhibition greater than . . . 50%)
NCCCC(=O)N[C@H]1C(OCc2ccc3ccccc3c2)O[C@H](COCc2ccc3ccccc3c2)[C@@H](O)[C@@H]1OCc1ccc(Cl)cc1 (single isomer, unassigned) [Compound 365] | + (Indicates inhibition greater than . . . 50%)
NCCCC(=O)N[C@H]1C(OCc2ccc3ccccc3c2)O[C@H](COCc2ccc3ccccc3c2)[C@@H](O)[C@@H]1OCc1ccc(Cl)cc1 (single isomer, unassigned) [Compound 366] | + (Indicates inhibition greater than . . . 50%)
NCCCC(=O)N[C@H]1C(OCc2ccc3ccccc3c2)O[C@H](COCc2ccc(Cl)cc2)[C@@H](O)[C@@H]1OCc1ccc(Cl)cc1 (single isomer, unassigned) [Compound 367] | + (Indicates inhibition greater than . . . 50%)
NCCCC(=O)N[C@H]1C(OCc2ccc3ccccc3c2)O[C@H](COCc2ccc(Cl)cc2)[C@@H](O)[C@@H]1OCc1ccc(Cl)cc1 (single isomer, unassigned) [Compound 368] | + (Indicates inhibition greater than . . . 50%)
NCCCC(=O)N[C@H]1C(OCc2ccc3ccccc3c2)O[C@H](COCc2ccc(Cl)cc2)[C@@H](O)[C@@H]1OCc1ccc2ccccc2c1 (single isomer, unassigned) [Compound 370] | + (Indicates inhibition greater than . . . 50%)
NCCCC(=O)N[C@H]1C(OCc2ccc3ccccc3c2)O[C@H](COCc2ccc(Cl)cc2)[C@@H](O)[C@@H]1OCc1ccc2ccccc2c1 (single isomer, unassigned) [Compound 371] | + (Indicates inhibition greater than . . . 50%)
NCCCC(=O)N[C@H]1C(OCc2ccc3ccccc3c2)O[C@H](COCc2ccc3ccccc3c2)[C@@H](O)[C@@H]1OCc1ccccc1 (single isomer, unassigned) [Compound 372] | + (Indicates inhibition greater than . . . 50%)
NCCCC(=O)N[C@H]1C(OCc2ccc3ccccc3c2)O[C@H](COCc2ccc3ccccc3c2)[C@@H](O)[C@@H]1OCc1ccccc1 (single isomer, unassigned) [Compound 373] | + (Indicates inhibition greater than . . . 50%)
NCCCC(=O)N[C@H]1C(OCc2ccc(Cl)cc2)O[C@H](COCc2ccc3ccccc3c2)[C@@H](O)[C@@H]1OCc1ccc2ccccc2c1 (single isomer, unassigned) [Compound 389] | + (Indicates inhibition greater than . . . 50%)
NCCCC(=O)N[C@H]1C(OCc2ccc(Cl)cc2)O[C@H](COCc2ccc3ccccc3c2)[C@@H](O)[C@@H]1OCc1ccc2ccccc2c1 (single isomer, unassigned) [Compound 390] | + (Indicates inhibition greater than . . . 50%)
NCCCC(=O)N[C@H]1C(OCc2ccc(Cl)cc2)O[C@H](COCc2ccccc2)[C@@H](O)[C@@H]1OCc1ccc2ccccc2c1 (single isomer, unassigned) [Compound 391] | + (Indicates inhibition greater than . . . 50%)
NCCCC(=O)N[C@H]1C(OCc2ccc(Cl)cc2)O[C@H](COCc2ccccc2)[C@@H](O)[C@@H]1OCc1ccc2ccccc2c1 (single isomer, unassigned) [Compound 392] | + (Indicates inhibition greater than . . . 50%)
NCCCC(=O)N[C@H]1C(OCc2ccc(Cl)cc2)O[C@H](COCc2ccc(Cl)cc2)[C@@H](O)[C@@H]1OCc1ccc2ccccc2c1 (single isomer, unassigned) [Compound 393] | + (Indicates inhibition greater than . . . 50%)
